Some test systems named below: OVCAR-5; SK-MEL-5; 786-0; NCI-H23; KM12; SK-MEL-28; CCRF-CEM; OVCAR-3; COLO 205; LOX IMVI; NCI-H226; HOP-62; HOP-92; HL-60; T47D; MCF7; TK-10; EKVX; OVCAR-4; IGROV-1.
Holding throughout (test): NCI-60 cell line screen, 48 h

Structures are written as SMILES. Several values for one entry are separate records, joined by “and”; a condition that tells them apart may be missing. Equal entries are not always repeated.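 Protocol summary: plate cells (96-well), add compound at 5 concentrations, incubate 48 h, interpolate endpoints linearly. The concentration for 50% growth inhibition is given as GI50.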 Activity calls are given as the source filed them. No stated cut-off is given here; in the data, active = GI50 up to about 1.1 µM and inactive = higher. Some results are limits rather than exact numbers.

`CN(C)c1ccc(C=c2c3ccccc3n3c2cc(-c2ccc(Cl)cc2)[n+]3C)cc1`: the GI50 in the test with OVCAR-5 is 1.04 µM (active); in the test on SK-MEL-5 it was 0.167 µM (active); in the test with 786-0, 0.267 µM (active); in the test with NCI-H23 it was 0.195 µM (active); with KM12, 0.105 µM (active); in the test on SK-MEL-28, 0.519 µM (active). For the same compound, the GI50 in the test with CCRF-CEM was 0.0649 µM (active); in the test on OVCAR-3, 0.295 µM (active); with COLO 205, 0.0705 µM (active); in the test on LOX IMVI, 0.194 µM (active); in the test on NCI-H226, 0.573 µM (active); in the test on HOP-62, 0.406 µM (active). Further, the GI50 in the test with HOP-92 is 0.221 µM (active); with HL-60, 0.101 µM (active); in the test on T47D, 0.133 µM (active); in the test with MCF7 it was 0.0953 µM (active); in the test on TK-10 it was 0.578 µM (active); in the test on EKVX, 0.617 µM (active). For the same compound, the GI50 in the test with OVCAR-4 was 0.748 µM (active).

With `CSc1ncc2c(n1)-c1ccccc1OC2NC(C)(C)C` (stereo unspecified), the GI50 in the test with OVCAR-5 was 50.7 µM (inactive); with 786-0, > 100 µM (inactive); in the test with NCI-H23, > 100 µM (inactive); in the test with KM12 it was > 100 µM (inactive); in the test on SK-MEL-28, > 100 µM (inactive); in the test with CCRF-CEM it was 91.4 µM (inactive). The GI50 in the test with OVCAR-3 was > 100 µM (inactive); with COLO 205, > 100 µM (inactive); with LOX IMVI, > 100 µM (inactive); in the test with NCI-H226 it was 31.4 µM (inactive); in the test on HOP-62 it was > 100 µM (inactive); in the test on HOP-92 it was 31.8 µM (inactive). For the same compound, the GI50 with HL-60 is > 100 µM (inactive); in the test on T47D, 55 µM (inactive); in the test on MCF7 it was 36.5 µM (inactive); in the test on TK-10, 33.9 µM (inactive); in the test on EKVX it was 29 µM (inactive); in the test with OVCAR-4, > 100 µM (inactive).

Turning to `CC(C)C(C=O)C(O)(C(F)(F)F)C(F)(F)F` (stereo unspecified), the GI50 with OVCAR-5, in the test with SK-MEL-5, in the test with 786-0, in the test on NCI-H23, in the test with KM12 and with SK-MEL-28 was > 100 µM (inactive) each time. In addition, the GI50 is > 10 µM (inactive) in the test on CCRF-CEM; > 100 µM (inactive) with OVCAR-3; > 100 µM (inactive) with COLO 205; > 100 µM (inactive) in the test with LOX IMVI; > 10 µM (inactive) in the test with IGROV-1; > 100 µM (inactive) in the test on NCI-H226. For the same compound, the GI50 in the test with HOP-92, in the test with HL-60, with T47D, in the test with MCF7, with TK-10 and in the test on EKVX was > 100 µM (inactive) in each case. The GI50 in the test on OVCAR-4 was > 100 µM (inactive).

For the compound `O=c1c2c3c(sc2nc2n1N=C(c1ccc(Br)cc1)CS2)CCCC3`, the GI50 with OVCAR-5, in the test on 786-0, in the test with NCI-H23, in the test on KM12, with SK-MEL-28 and in the test on CCRF-CEM was > 100 µM (inactive) in each case. Besides, the GI50 in the test with OVCAR-3, with COLO 205, in the test on LOX IMVI, in the test on IGROV-1, with NCI-H226 and in the test with HOP-62 was > 100 µM (inactive) throughout. Also, the GI50 in the test on HOP-92, in the test with HL-60, in the test with T47D, in the test on MCF7, with TK-10 and in the test with EKVX was > 100 µM (inactive) in each case. Also, in the test on OVCAR-4, the GI50 was > 100 µM (inactive).

As for `CC(C)C/C=C/C1=NN(c2cccc(S(=O)(=O)O)c2)C2(C1)SCC(=O)N2c1nc2ccccc2s1` (stereo unspecified), the GI50 in the test with OVCAR-5 is > 100 µM (inactive); with SK-MEL-5, 64 µM (inactive); in the test with 786-0, 21.3 µM (inactive); with NCI-H23, 99.5 µM (inactive); in the test on KM12, 36.7 µM (inactive); in the test with SK-MEL-28, > 100 µM (inactive). In addition, the GI50 is 23.3 µM (inactive) with CCRF-CEM; > 100 µM (inactive) in the test on COLO 205; 26.8 µM (inactive) in the test on LOX IMVI; 36.8 µM (inactive) with IGROV-1; 29.2 µM (inactive) in the test with NCI-H226; > 100 µM (inactive) with HOP-92. Besides, the GI50 in the test with HL-60 is 29.9 µM (inactive); in the test with T47D it was 5.43 µM (inactive); with MCF7, 30.5 µM (inactive); in the test with TK-10, 34.4 µM (inactive); with EKVX it was > 100 µM (inactive); in the test on OVCAR-4, 61.7 µM (inactive).

With `COc1cc(C2c3cc4c(cc3OC(NNC(N)=S)C2C)OCO4)cc(OC)c1OC` (stereo unspecified), the GI50 with SK-MEL-5 is 0.269 µM (active); in the test with 786-0, 0.398 µM (active); in the test with NCI-H23, 0.38 µM (active); with KM12, 0.343 µM (active); in the test with SK-MEL-28 it was 0.524 µM (active); in the test on CCRF-CEM, 0.244 µM (active). The GI50 in the test with OVCAR-3 is 0.349 µM (active); in the test on COLO 205 it was 0.277 µM (active); with LOX IMVI, 0.412 µM (active); in the test on IGROV-1 it was 0.441 µM (active); in the test on NCI-H226 it was 0.721 µM (active); with HOP-62, 0.344 µM (active). For the same compound, the GI50 in the test on HOP-92 was 0.152 µM (active); with HL-60, 0.165 µM (active); in the test with T47D, 26.1 µM (inactive); in the test on MCF7, 0.457 µM (active); in the test on TK-10 it was 5.12 µM (inactive); in the test on EKVX, 22.5 µM (inactive). In addition, the GI50 in the test with OVCAR-4 is 41.3 µM (inactive).

Consider `CC(C)(C)[C@@H]1NC(=O)CN1C(=O)OCc1ccccc1`, for which the GI50 in the test with OVCAR-5, in the test on SK-MEL-5, with 786-0, in the test with NCI-H23, in the test with KM12 and in the test with SK-MEL-28 was > 100 µM (inactive) throughout. Further, the GI50 in the test on CCRF-CEM, in the test on COLO 205, in the test with LOX IMVI, in the test on IGROV-1, in the test on NCI-H226 and with HOP-62 was > 100 µM (inactive) in each case. In addition, the GI50 in the test with HOP-92, with HL-60, in the test with T47D, with MCF7, in the test on TK-10 and in the test on EKVX was > 100 µM (inactive) in each case. Besides, the GI50 in the test with OVCAR-4 was > 100 µM (inactive).

In the case of `CC1=NN(c2nc(N)nc(/C(C#N)=C/c3ccccc3O)n2)C(C)(C)C1`, the GI50 in the test with OVCAR-5 is 15.4 µM (inactive); in the test with SK-MEL-5, 15.5 µM (inactive); in the test on 786-0 it was 15.7 µM (inactive); with NCI-H23, 16.8 µM (inactive); in the test on KM12 it was 15.8 µM (inactive); in the test on SK-MEL-28 it was 16.7 µM (inactive). Besides, the GI50 in the test on CCRF-CEM was 18 µM (inactive); in the test with OVCAR-3, 14.7 µM (inactive); with COLO 205, 17.4 µM (inactive); with IGROV-1, 23.1 µM (inactive); in the test with NCI-H226 it was 17.3 µM (inactive); with HOP-62, 20.5 µM (inactive). Also, the GI50 with HOP-92 was 20.1 µM (inactive); with HL-60, 30.3 µM (inactive); in the test with T47D, 15.7 µM (inactive); in the test on MCF7, 24.8 µM (inactive); in the test with TK-10, 26.7 µM (inactive); in the test with EKVX it was 16 µM (inactive). Also, the GI50 in the test on OVCAR-4 is 19 µM (inactive).

As to `C=C(C)CC1=C(C(=S)NCCO[Si](C)(C)C(C)(C)C)C(OCC)(OCC)C1=O`, the GI50 in the test with OVCAR-5 is 14 µM (inactive); with SK-MEL-5, 15.2 µM (inactive); with 786-0, 16.6 µM (inactive); with NCI-H23 it was 16.9 µM (inactive); in the test with KM12 it was 16.7 µM (inactive); in the test with SK-MEL-28, 15.5 µM (inactive). In addition, the GI50 is > 100 µM (inactive) in the test on CCRF-CEM; 22.3 µM (inactive) with COLO 205; 15.8 µM (inactive) with LOX IMVI; 15.9 µM (inactive) in the test on IGROV-1; > 10 µM (inactive) with NCI-H226; 17.9 µM (inactive) in the test with HOP-62. Moreover, the GI50 in the test on HOP-92 was 29.8 µM (inactive); in the test with HL-60, > 100 µM (inactive); in the test with T47D, 11.4 µM (inactive); in the test with MCF7, 9.66 µM (inactive); in the test with TK-10 it was 16.1 µM (inactive); with EKVX it was 16.6 µM (inactive). In addition, in the test on OVCAR-4, the GI50 was 12.9 µM (inactive).

Take `C=C1C(=O)OC2/C=C(\CO)C(OC(C)=O)CC(O)/C(C)=C/C(OC(=O)C(C)CC)C12` (stereo unspecified): the GI50 with SK-MEL-5 is 18.8 µM (inactive) and 17 µM (inactive); in the test on 786-0 it was 14.8 µM (inactive) and 21.8 µM (inactive); in the test with NCI-H23, 24.2 µM (inactive) and 17.2 µM (inactive); in the test on SK-MEL-28 it was 18.3 µM (inactive) and 26.9 µM (inactive); in the test on OVCAR-3 it was 18.5 µM (inactive) and 16.5 µM (inactive); with COLO 205 it was 14 µM (inactive) and 11.8 µM (inactive). Further, the GI50 is 18.8 µM (inactive) and 13.7 µM (inactive) in the test with LOX IMVI; 38.4 µM (inactive) and 40 µM (inactive) with IGROV-1; 29.6 µM (inactive) with NCI-H226; > 100 µM (inactive) in the test with HOP-62; 18.5 µM (inactive) and 21.7 µM (inactive) with HOP-92; 5.86 µM (inactive) and 4.97 µM (inactive) in the test on HL-60. Also, the GI50 was 15.7 µM (inactive) in the test with T47D; 12.9 µM (inactive) with MCF7; 17.6 µM (inactive) and 19.3 µM (inactive) in the test with TK-10; 25.5 µM (inactive) and 25.1 µM (inactive) with EKVX; 33.5 µM (inactive) and 17.3 µM (inactive) with OVCAR-4.

Values taken from ChEMBL document CHEMBL1201862, “PubChem BioAssay data set” (2004).
